Results taken from the supplement of paper PMC10307832.

Legend:
Assay in all cases: relative viability (nuclei count vs DMSO), 5 days (fraction); higher = more cells survive
201T = test system: 201T
Method in brief: (§1)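 Relative viability is defined as nuclei in treated wells over nuclei in vehicle wells. Duplicate plates were run and medians reported. Lung cancer cell lines in 1536-well plates were dosed by pin tool one day after seeding, with one drug or with a fixed anchor-drug dose plus five library-drug doses (not always all listed) in √10 steps, and nuclei were counted after 5 days.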

COR-L 105 = test system: COR-L 105
Method in brief: as §1

ChaGo-K-1 = test system: ChaGo-K-1
Method in brief: as §1

EPLC-272H = test system: EPLC-272H
Method in brief: as §1

H3255 = test system: H3255
Method in brief: as §1

HCC-78 = test system: HCC-78
Method in brief: as §1

HCC-827 = test system: HCC-827
Method in brief: as §1

LC-2-ad = test system: LC-2-ad
Method in brief: as §1

LCLC-97TM1 = test system: LCLC-97TM1
Method in brief: as §1

NCI-H1666 = test system: NCI-H1666
Method in brief: as §1

NCI-H1915 = test system: NCI-H1915
Method in brief: as §1

NCI-H2087 = test system: NCI-H2087
Method in brief: as §1

NCI-H2126 = test system: NCI-H2126
Method in brief: as §1

NCI-H2347 = test system: NCI-H2347
Method in brief: as §1

NCI-H23 = test system: NCI-H23
Method in brief: as §1

NCI-H2405 = test system: NCI-H2405
Method in brief: as §1

NCI-H520 = test system: NCI-H520
Method in brief: as §1

NCI-H647 = test system: NCI-H647
Method in brief: as §1

PC-14 = test system: PC-14
Method in brief: as §1

RERF-LC-KJ = test system: RERF-LC-KJ
Method in brief: as §1

## CC(=O)O[C@@]12CO[C@@H]1C[C@H](O)[C@@]1(C)C(=O)[C@H](O)C3=C(C)[C@@H](OC(=O)[C@H](O)[C@@H](NC(=O)OC(C)(C)C)c4ccccc4)C[C@@](O)([C@@H](OC(=O)c4ccccc4)[C@H]21)C3(C)C [Docetaxel] + CC1(C)CCC(c2ccc(Cl)cc2)=C(CN2CCN(c3ccc(C(=O)NS(=O)(=O)c4ccc(N[C@H](CCN5CCOCC5)CSc5ccccc5)c(S(=O)(=O)C(F)(F)F)c4)cc3)CC2)C1 [Navitoclax] (partner 0.5 µM)
201T; first compound 0.0002 µM
  relative viability: 1.18
201T; first compound 0.000632 µM
  relative viability: 1.21
201T; first compound 0.002 µM
  relative viability: 1.06
201T; first compound 0.006325 µM
  relative viability: 0.507
201T; first compound 0.02 µM
  relative viability: 0.347
COR-L 105; first compound 0.0002 µM
  relative viability: 0.94
COR-L 105; first compound 0.000632 µM
  relative viability: 0.715
COR-L 105; first compound 0.002 µM
  relative viability: 0.343
COR-L 105; first compound 0.006325 µM
  relative viability: 0.367
COR-L 105; first compound 0.02 µM
  relative viability: 0.26
ChaGo-K-1; first compound 0.0002 µM
  relative viability: 1.02
ChaGo-K-1; first compound 0.000632 µM
  relative viability: 0.597
ChaGo-K-1; first compound 0.002 µM
  relative viability: 0.485
ChaGo-K-1; first compound 0.006325 µM
  relative viability: 0.429
ChaGo-K-1; first compound 0.02 µM
  relative viability: 0.232
EPLC-272H; first compound 0.0002 µM
  relative viability: 1.12
EPLC-272H; first compound 0.000632 µM
  relative viability: 0.889
EPLC-272H; first compound 0.002 µM
  relative viability: 0.374
EPLC-272H; first compound 0.006325 µM
  relative viability: 0.126
EPLC-272H; first compound 0.02 µM
  relative viability: 0.0732
H3255; first compound 0.0002 µM
  relative viability: 0.399
H3255; first compound 0.000632 µM
  relative viability: 0.46
H3255; first compound 0.002 µM
  relative viability: 0.181
H3255; first compound 0.006325 µM
  relative viability: 0.141
H3255; first compound 0.02 µM
  relative viability: 0.102
HCC-78; first compound 0.0002 µM
  relative viability: 0.75
HCC-78; first compound 0.000632 µM
  relative viability: 0.455
HCC-78; first compound 0.002 µM
  relative viability: 0.244
HCC-78; first compound 0.006325 µM
  relative viability: 0.242
HCC-78; first compound 0.02 µM
  relative viability: 0.158
HCC-827; first compound 0.0002 µM
  relative viability: 1.02
HCC-827; first compound 0.000632 µM
  relative viability: 1.02
HCC-827; first compound 0.002 µM
  relative viability: 0.943
HCC-827; first compound 0.006325 µM
  relative viability: 0.334
HCC-827; first compound 0.02 µM
  relative viability: 0.252
LC-2-ad; first compound 0.0002 µM
  relative viability: 0.237
LC-2-ad; first compound 0.000632 µM
  relative viability: 0.18
LC-2-ad; first compound 0.002 µM
  relative viability: 0.114
LC-2-ad; first compound 0.006325 µM
  relative viability: 0.0942
LC-2-ad; first compound 0.02 µM
  relative viability: 0.0914
LCLC-97TM1; first compound 0.000632 µM
  relative viability: 0.498
LCLC-97TM1; first compound 0.002 µM
  relative viability: 0.145
LCLC-97TM1; first compound 0.006325 µM
  relative viability: 0.168
LCLC-97TM1; first compound 0.02 µM
  relative viability: 0.11
NCI-H1666; first compound 0.0002 µM
  relative viability: 0.646
NCI-H1666; first compound 0.000632 µM
  relative viability: 0.565
NCI-H1666; first compound 0.002 µM
  relative viability: 0.354
NCI-H1666; first compound 0.006325 µM
  relative viability: 0.302
NCI-H1666; first compound 0.02 µM
  relative viability: 0.186
NCI-H1915; first compound 0.0002 µM
  relative viability: 0.789
NCI-H1915; first compound 0.000632 µM
  relative viability: 0.774
NCI-H1915; first compound 0.002 µM
  relative viability: 0.524
NCI-H1915; first compound 0.006325 µM
  relative viability: 0.102
NCI-H1915; first compound 0.02 µM
  relative viability: 0.0504
NCI-H2087; first compound 0.0002 µM
  relative viability: 0.964
NCI-H2087; first compound 0.000632 µM
  relative viability: 0.446
NCI-H2087; first compound 0.002 µM
  relative viability: 0.276
NCI-H2087; first compound 0.006325 µM
  relative viability: 0.154
NCI-H2087; first compound 0.02 µM
  relative viability: 0.129
NCI-H2126; first compound 0.0002 µM
  relative viability: 0.873
NCI-H2126; first compound 0.000632 µM
  relative viability: 0.954
NCI-H2126; first compound 0.002 µM
  relative viability: 0.735
NCI-H2126; first compound 0.006325 µM
  relative viability: 0.334
NCI-H2126; first compound 0.02 µM
  relative viability: 0.227
NCI-H2347; first compound 0.0002 µM
  relative viability: 0.844
NCI-H2347; first compound 0.000632 µM
  relative viability: 0.653
NCI-H2347; first compound 0.002 µM
  relative viability: 0.408
NCI-H2347; first compound 0.006325 µM
  relative viability: 0.359
NCI-H2347; first compound 0.02 µM
  relative viability: 0.258
NCI-H23; first compound 0.0002 µM
  relative viability: 0.876
NCI-H23; first compound 0.000632 µM
  relative viability: 0.741
NCI-H23; first compound 0.002 µM
  relative viability: 0.514
NCI-H23; first compound 0.006325 µM
  relative viability: 0.242
NCI-H2405; first compound 0.0002 µM
  relative viability: 0.907
NCI-H2405; first compound 0.000632 µM
  relative viability: 0.543
NCI-H2405; first compound 0.002 µM
  relative viability: 0.313
NCI-H2405; first compound 0.006325 µM
  relative viability: 0.203
NCI-H2405; first compound 0.02 µM
  relative viability: 0.119
NCI-H520; first compound 0.0002 µM
  relative viability: 1.07
NCI-H520; first compound 0.000632 µM
  relative viability: 0.86
NCI-H520; first compound 0.002 µM
  relative viability: 0.283
NCI-H520; first compound 0.006325 µM
  relative viability: 0.16
NCI-H520; first compound 0.02 µM
  relative viability: 0.156
NCI-H647; first compound 0.0002 µM
  relative viability: 1.21
NCI-H647; first compound 0.000632 µM
  relative viability: 0.597
NCI-H647; first compound 0.002 µM
  relative viability: 0.245
NCI-H647; first compound 0.006325 µM
  relative viability: 0.125
NCI-H647; first compound 0.02 µM
  relative viability: 0.0526
PC-14; first compound 0.0002 µM
  relative viability: 0.978
PC-14; first compound 0.000632 µM
  relative viability: 0.961
PC-14; first compound 0.002 µM
  relative viability: 0.201
PC-14; first compound 0.006325 µM
  relative viability: 0.0826
PC-14; first compound 0.02 µM
  relative viability: 0.0464
RERF-LC-KJ; first compound 0.0002 µM
  relative viability: 0.754
RERF-LC-KJ; first compound 0.000632 µM
  relative viability: 0.576
RERF-LC-KJ; first compound 0.002 µM
  relative viability: 0.174
RERF-LC-KJ; first compound 0.006325 µM
  relative viability: 0.202
RERF-LC-KJ; first compound 0.02 µM
  relative viability: 0.154
